“And” between values parts separate entries of the source, which are not always exact repeats. Equal entries are not always repeated. Where two headings read alike, the source gives them in different places.
What was measured:
[1] = test system: pBR322 plasmid; details: previous study; cited from earlier work
[2] = test system: poly(dG-dC)2; test: Ethidium displacement assay, apparent binding constant, poly(dG-dC)2; details: apparent association constant, ± 0.2 × 10^5 M^−1
Description: (§1) The fluorescence of DNA solutions (calf thymus DNA, T4 coliphage DNA, poly(dA-dT)2 and poly(dG-dC)2 with the investigated compound (final concentrations 10, 50, 100 μM) was measured by fluorescence spectrophotometer Infinite M200 TECAN at room temperature according to the procedure described above. The determination of DNA-binding constants was described in previous articles. The apparent binding constant was calculated from KEtBr [EtBr] = Kapp [drug], where [drug] = the concentration of the tested compound at 50% reduction of fluorescence and KEtBr and [EtBr] are known. The results are reported as a percentage of fluorescence decreases in Table 1.

[3] = test system: poly(dA-dT)2; test: Ethidium displacement assay, apparent binding constant, poly(dA-dT)2; details: apparent association constant, ± 0.2 × 10^5 M^−1
Description: as §1

[4] = test system: calf thymus DNA; test: Ethidium displacement assay, apparent binding constant, calf thymus DNA; details: apparent association constant, ± 0.2 × 10^5 M^−1
Description: as §1

[5] = test system: T4 coliphage DNA; test: Ethidium displacement assay, apparent binding constant, T4 coliphage DNA; details: apparent association constant, ± 0.2 × 10^5 M^−1
Text: The values of binding constants in the range of 0.7–6.4 × 10^5 M^−1 for T4 coliphage DNA for derivatives 1–18 was evidence of their minor-groove selectivity, because the major groove of T4 coliphage DNA is blocked by a-glycosylation of the 5-(hydroxymethyl)cytidine residues. […] All of the compounds bound to AT-rich sequences weaker than netropsin but some of them bound stronger to GC-rich sequences, e.g., compounds 3, 6, and 10.
as §1

[6] = test system: poly(dG-dC)2 (DNA, polymer) GC; test: ethidium bromide displacement, fluorescence; details: apparent; room temperature; ethidium bromide displaced; compound 10, 50, 100 µM
[7] = molecular target: T1, recombinant human DHFR (Homo sapiens, UniProt P00374); test: Dihydrofolate reductase (DHFR) inhibition assay; format: biochemical; details: assay kit
T1 construct: purchased
T1 sequence (P00374 1-187): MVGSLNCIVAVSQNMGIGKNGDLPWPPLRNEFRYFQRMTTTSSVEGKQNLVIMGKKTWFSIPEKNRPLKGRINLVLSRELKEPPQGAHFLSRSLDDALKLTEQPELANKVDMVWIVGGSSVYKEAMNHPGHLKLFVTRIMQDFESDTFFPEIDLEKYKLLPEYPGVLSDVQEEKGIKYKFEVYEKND

[8] = test system: pBR322 plasmid; test: Ethidium bromide assay, DNA-binding effect on plasmid pBR322; details: % fluorescence relative to controls
Text: Fluorescence readings are reported as % fluorescence relative to the controls.

[9] = test system: poly(dA-dT)2 (DNA, polymer) AT; test: ethidium bromide displacement, fluorescence; details: apparent; room temperature; ethidium bromide displaced; compound 10, 50, 100 µM
[10] = test system: calf thymus DNA; parameters: method as in earlier work; details: reference values; KEtBr known (ref 25, 47); NT ref 48 (table row: ref 45); cited from earlier work
[11] = test system: poly(dA-dT)2; parameters: method as in earlier work; details: reference values; KEtBr known (ref 25, 47); NT ref 48 (table row: ref 45); cited from earlier work
[12] = test system: poly(dG-dC)2; parameters: method as in earlier work; details: reference values; KEtBr known (ref 25, 47); NT ref 48 (table row: ref 45); cited from earlier work
[13] = test system: T4 coliphage DNA; parameters: method as in earlier work; details: reference values; KEtBr known (ref 25, 47); NT ref 48 (table row: ref 45); cited from earlier work

Kapp poly (dG-dC)2 [2]	Kapp Poly (dA-dT)2 [3]	Kapp [6]	IC50 [7]	Decrease of Fluorescence [8]	Kapp [9]	Compound	DNA-binding activity expressed as % decrease of fluorescence [1]	Kapp Calf Thymus DNA [4]	Kapp T4 DNA [5]	Kapp Calf Thymus DNA [10]	Kapp Poly (dA-dT)2 [11]	Kapp poly (dG-dC)2 [12]	Kapp T4 DNA [13]
						COc1cc(CCC(=O)Nc2cnc(N)nc2)cc(OC)c1OC [C]	69.92%						
360000 M⁻¹	310000 M⁻¹	3.6 ± 0.2 × 10^5 M^−1	21.89 ± 0.03 µM	74.54%	3.1 ± 0.2 × 10^5 M^−1	COc1cc(C(=O)Nc2ccc(N)c(I)c2)cc(OC)c1OC [Compound 1]		300000 M⁻¹	160000 M⁻¹				
530000 M⁻¹	430000 M⁻¹	5.3 ± 0.2 × 10^5 M^−1	10.13 ± 0.09 µM	68.85%	4.3 ± 0.2 × 10^5 M^−1	COc1cc(C(=O)Nc2cc(N)ccc2F)cc(OC)c1OC [Compound 3]		170000 M⁻¹	410000 M⁻¹				
130000 M⁻¹	210000 M⁻¹	1.3 ± 0.2 × 10^5 M^−1	5.02 ± 0.03 µM	87.99%	2.1 ± 0.2 × 10^5 M^−1	COc1cc(C(=O)Nc2ccc(N)c(Cl)c2)cc(OC)c1OC [Compound 4]		230000 M⁻¹	230000 M⁻¹				
230000 M⁻¹	130000 M⁻¹	2.3 ± 0.2 × 10^5 M^−1	30.02 ± 0.02 µM	72.56%	1.3 ± 0.2 × 10^5 M^−1	COc1cc(C(=O)Nc2cc(N)ccc2Cl)cc(OC)c1OC [Compound 5]		270000 M⁻¹	100000 M⁻¹				
230000 M⁻¹	340000 M⁻¹	2.3 ± 0.2 × 10^5 M^−1	3.02 ± 0.09 µM	66.89%	3.4 ± 0.2 × 10^5 M^−1	COc1cc(OC)cc(C(=O)Nc2ccc(N)nc2)c1 [Compound 7]		410000 M⁻¹	210000 M⁻¹				
350000 M⁻¹	310000 M⁻¹	3.5 ± 0.2 × 10^5 M^−1	10.59 ± 0.06 µM	56.58%	3.1 ± 0.2 × 10^5 M^−1	COc1ccc(C(=O)Nc2ccc(N)nc2)cc1OC [Compound 8]		250000 M⁻¹	240000 M⁻¹				
150000 M⁻¹	390000 M⁻¹	1.5 ± 0.2 × 10^5 M^−1	56.05 ± 0.08 µM	64.89%	3.9 ± 0.2 × 10^5 M^−1	COc1cccc(C(=O)Nc2ccc(N)nc2)c1 [Compound 9]		390000 M⁻¹	120000 M⁻¹				
470000 M⁻¹	110000 M⁻¹	4.7 ± 0.2 × 10^5 M^−1	19.2 ± 0.01 µM	70.11%	1.1 ± 0.2 × 10^5 M^−1	COc1cc(OC)cc(C(=O)Nc2cnc(N)nc2)c1 [Compound 10]		260000 M⁻¹	70000 M⁻¹				
250000 M⁻¹	260000 M⁻¹	2.5 ± 0.2 × 10^5 M^−1	55.32 ± 0.02 µM	54.54%	2.6 ± 0.2 × 10^5 M^−1	COc1cccc(C(=O)Nc2cnc(N)nc2)c1 [Compound 11]		120000 M⁻¹	310000 M⁻¹				
210000 M⁻¹	150000 M⁻¹	2.1 ± 0.2 × 10^5 M^−1	26.01 ± 0.02 µM	60.11%	1.5 ± 0.2 × 10^5 M^−1	COc1cc(/C=C/C(=O)Nc2cnc(N)nc2)cc(OC)c1OC [Compound 12]		210000 M⁻¹	280000 M⁻¹				
340000 M⁻¹	400000 M⁻¹	3.4 ± 0.2 × 10^5 M^−1	0.89 ± 0.07 µM	49.9% and 49.89%	4.0 ± 0.2 × 10^5 M^−1	COc1cc(/C=C/C(=O)Nc2ccc(N)cc2)cc(OC)c1OC [Compound 13]		190000 M⁻¹	290000 M⁻¹				
420000 M⁻¹	890000 M⁻¹	4.2 ± 0.2 × 10^5 M^−1	0.97 ± 0.02 µM	43.85%	8.9 ± 0.2 × 10^5 M^−1	COc1cc(NC(=O)/C=C/c2cc(OC)c(OC)c(OC)c2)ccc1N [Compound 14]		490000 M⁻¹	290000 M⁻¹				
240000 M⁻¹	310000 M⁻¹	2.4 ± 0.2 × 10^5 M^−1	12.01 ± 0.01 µM	68.82%	3.1 ± 0.2 × 10^5 M^−1	COc1cc(/C=C/C(=O)Nc2ccc(N)nc2)cc(OC)c1OC [Compound 15]		190000 M⁻¹	230000 M⁻¹				
380000 M⁻¹	270000 M⁻¹	3.8 ± 0.2 × 10^5 M^−1	0.88 ± 0.02 µM	57.77%	2.7 ± 0.2 × 10^5 M^−1	COc1cc(/C=C/C(=O)Nc2ccc(Cl)c(N)c2)cc(OC)c1OC [Compound 16]		130000 M⁻¹	310000 M⁻¹				
250000 M⁻¹	50000 M⁻¹	2.5 ± 0.2 × 10^5 M^−1	1.22 ± 0.05 µM	41.68%	0.5 ± 0.2 × 10^5 M^−1	COc1cc(/C=C/C(=O)Nc2ccc(F)c(N)c2)cc(OC)c1OC [Compound 17]		180000 M⁻¹	290000 M⁻¹				
460000 M⁻¹	450000 M⁻¹	4.6 ± 0.2 × 10^5 M^−1	2.09 ± 0.04 µM	42.99%	4.5 ± 0.2 × 10^5 M^−1	COc1cc(/C=C/C(=O)Nc2ccc(N)c(I)c2)cc(OC)c1OC [Compound 18]		580000 M⁻¹	640000 M⁻¹				
				100%		CN(Cc1cnc2nc(N)nc(N)c2n1)c1ccc(C(=O)N[C@@H](CCC(=O)O)C(=O)O)cc1 [MTX, methotrexate, reference compound]							
				100%		COc1cc(Cc2cnc(N)nc2N)cc(OC)c1OC [TMP, 2,4-diamino-5-(3,4,5-trimethoxybenzyl) pyrimidine, reference compound]							

Compound	Kapp poly (dG-dC)2 [2]	Kapp Poly (dA-dT)2 [3]	Kapp [6]	IC50 [7]	Decrease of Fluorescence [8]	Kapp [9]	DNA-binding activity expressed as % decrease of fluorescence [1]	Kapp Calf Thymus DNA [4]	Kapp T4 DNA [5]	Kapp Calf Thymus DNA [10]	Kapp Poly (dA-dT)2 [11]	Kapp poly (dG-dC)2 [12]	Kapp T4 DNA [13]
COc1cc(C(=O)Nc2ccc(F)c(N)c2)cc(OC)c1OC [Compound 2]	300000 M⁻¹	190000 M⁻¹	3.0 ± 0.2 × 10^5 M^−1	1.11 ± 0.02 µM	52.89%	1.9 ± 0.2 × 10^5 M^−1		260000 M⁻¹	260000 M⁻¹				
COc1cc(C(=O)Nc2ccc(N)nc2)cc(OC)c1OC [Compound 6]	480000 M⁻¹	250000 M⁻¹	4.8 ± 0.2 × 10^5 M^−1	0.99 ± 0.01 µM	50.44%	2.5 ± 0.2 × 10^5 M^−1		400000 M⁻¹	130000 M⁻¹				
CC[n+]1c(-c2ccccc2)c2cc(N)ccc2c2ccc(N)cc21 [EtBr, Ethidium bromide]					100%					1e+07 M⁻¹	95^b* × 10^5 M^−1	9.9e+06 M⁻¹	1e+07 M⁻¹

Reference: paper PMC8037161 (International Journal of Molecular Sciences, 2021)
